Among the data in US11174268B2, “Benzenesulfonamide compouds and their use as therapeutic agents” (Xenon Pharmaceuticals Inc., priority 2016, dated 2021) are IC50 values, retold here.

Data set [1] deals with T1, NaV1.6 (Homo sapiens (Human), UniProt Q9UQD0). Briefly: Sodium Influx Assay (Flux), NaV1.6.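 Note: Tetracycline-induced cells, compounds applied for one hour at room temperature with modulators holding channels open, IC50 from percent inhibition of sodium influx.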 The following applies: Trex HEK293 cells, ANG2 dye, inactivated state. The data set is classed as cell-based.
T1 sequence (Q9UQD0 whole entry): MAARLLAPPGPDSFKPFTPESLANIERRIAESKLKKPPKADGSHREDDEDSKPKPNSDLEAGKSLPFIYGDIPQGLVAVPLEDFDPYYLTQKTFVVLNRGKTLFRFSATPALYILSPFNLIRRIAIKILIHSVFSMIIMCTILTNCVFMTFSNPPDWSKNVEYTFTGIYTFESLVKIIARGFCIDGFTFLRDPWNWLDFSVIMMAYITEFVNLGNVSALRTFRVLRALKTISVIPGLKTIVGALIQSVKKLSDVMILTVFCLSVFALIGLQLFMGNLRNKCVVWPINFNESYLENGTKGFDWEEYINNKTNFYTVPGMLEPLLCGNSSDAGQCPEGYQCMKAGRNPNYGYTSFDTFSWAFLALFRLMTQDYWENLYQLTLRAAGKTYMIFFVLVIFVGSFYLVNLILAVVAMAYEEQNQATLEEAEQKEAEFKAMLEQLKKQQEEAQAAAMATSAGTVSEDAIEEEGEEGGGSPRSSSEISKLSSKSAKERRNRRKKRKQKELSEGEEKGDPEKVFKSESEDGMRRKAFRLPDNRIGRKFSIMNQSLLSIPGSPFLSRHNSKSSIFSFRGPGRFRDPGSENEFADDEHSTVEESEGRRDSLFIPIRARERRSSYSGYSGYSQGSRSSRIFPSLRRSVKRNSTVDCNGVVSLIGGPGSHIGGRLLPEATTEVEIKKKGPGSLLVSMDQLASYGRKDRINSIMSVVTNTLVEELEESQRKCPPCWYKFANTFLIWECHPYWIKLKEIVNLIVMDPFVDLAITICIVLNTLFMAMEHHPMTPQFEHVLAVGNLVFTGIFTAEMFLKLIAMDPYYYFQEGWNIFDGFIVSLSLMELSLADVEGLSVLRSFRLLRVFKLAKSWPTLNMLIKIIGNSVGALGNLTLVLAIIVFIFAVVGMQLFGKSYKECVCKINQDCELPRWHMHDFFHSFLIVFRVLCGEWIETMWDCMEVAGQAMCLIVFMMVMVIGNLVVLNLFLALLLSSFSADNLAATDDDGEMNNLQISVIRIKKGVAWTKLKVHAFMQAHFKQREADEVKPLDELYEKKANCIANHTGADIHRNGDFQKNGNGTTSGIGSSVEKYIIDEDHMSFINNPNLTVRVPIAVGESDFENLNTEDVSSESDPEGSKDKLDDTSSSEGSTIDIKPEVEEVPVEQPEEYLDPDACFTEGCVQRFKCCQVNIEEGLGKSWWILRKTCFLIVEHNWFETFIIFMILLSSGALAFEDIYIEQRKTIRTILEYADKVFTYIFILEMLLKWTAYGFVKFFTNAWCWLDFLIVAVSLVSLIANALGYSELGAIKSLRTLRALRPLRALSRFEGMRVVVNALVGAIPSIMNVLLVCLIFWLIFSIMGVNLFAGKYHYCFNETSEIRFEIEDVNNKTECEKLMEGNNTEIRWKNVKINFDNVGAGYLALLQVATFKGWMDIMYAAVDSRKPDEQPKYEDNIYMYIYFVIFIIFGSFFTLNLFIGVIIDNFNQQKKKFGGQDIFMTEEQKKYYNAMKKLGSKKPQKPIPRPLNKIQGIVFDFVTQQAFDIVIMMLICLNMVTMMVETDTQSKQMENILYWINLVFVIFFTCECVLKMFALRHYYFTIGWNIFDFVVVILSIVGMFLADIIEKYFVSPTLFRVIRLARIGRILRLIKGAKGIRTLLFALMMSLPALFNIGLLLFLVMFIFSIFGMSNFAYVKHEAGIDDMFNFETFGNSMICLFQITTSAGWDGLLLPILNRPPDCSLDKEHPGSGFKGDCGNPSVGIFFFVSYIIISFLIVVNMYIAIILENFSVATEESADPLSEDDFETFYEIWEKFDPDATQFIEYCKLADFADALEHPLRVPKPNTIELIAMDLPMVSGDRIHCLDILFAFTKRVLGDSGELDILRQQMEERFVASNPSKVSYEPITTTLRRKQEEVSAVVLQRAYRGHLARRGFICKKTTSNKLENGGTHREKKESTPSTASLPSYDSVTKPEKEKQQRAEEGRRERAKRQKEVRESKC
For data set [2], the target named is T1, NaV1.6. Briefly: Electrophysiological Assay (EP), patch voltage clamp, NaV1.6.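 Note: sodium current recorded at ambient temperature, channels held inactivated then briefly repolarized to −150 mV for 20 ms before a test pulse, control currents in 0.5% DMSO.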 The settings on record: HEK-293 cells, whole-cell patch clamp. The data set is classed as cell-based. For orientation: Patch clamp records ionic current or voltage across a cell membrane.
The target in data set [3] is T2, NaV1.5 (Homo sapiens (Human), UniProt Q14524). Briefly: Electrophysiological Assay (EP), patch voltage clamp, NaV1.5. The data set is classed as cell-based. The following applies: HEK-293 cells, whole-cell patch clamp.
T2 sequence (Q14524 other isoform, or with tags, fused parts or gaps): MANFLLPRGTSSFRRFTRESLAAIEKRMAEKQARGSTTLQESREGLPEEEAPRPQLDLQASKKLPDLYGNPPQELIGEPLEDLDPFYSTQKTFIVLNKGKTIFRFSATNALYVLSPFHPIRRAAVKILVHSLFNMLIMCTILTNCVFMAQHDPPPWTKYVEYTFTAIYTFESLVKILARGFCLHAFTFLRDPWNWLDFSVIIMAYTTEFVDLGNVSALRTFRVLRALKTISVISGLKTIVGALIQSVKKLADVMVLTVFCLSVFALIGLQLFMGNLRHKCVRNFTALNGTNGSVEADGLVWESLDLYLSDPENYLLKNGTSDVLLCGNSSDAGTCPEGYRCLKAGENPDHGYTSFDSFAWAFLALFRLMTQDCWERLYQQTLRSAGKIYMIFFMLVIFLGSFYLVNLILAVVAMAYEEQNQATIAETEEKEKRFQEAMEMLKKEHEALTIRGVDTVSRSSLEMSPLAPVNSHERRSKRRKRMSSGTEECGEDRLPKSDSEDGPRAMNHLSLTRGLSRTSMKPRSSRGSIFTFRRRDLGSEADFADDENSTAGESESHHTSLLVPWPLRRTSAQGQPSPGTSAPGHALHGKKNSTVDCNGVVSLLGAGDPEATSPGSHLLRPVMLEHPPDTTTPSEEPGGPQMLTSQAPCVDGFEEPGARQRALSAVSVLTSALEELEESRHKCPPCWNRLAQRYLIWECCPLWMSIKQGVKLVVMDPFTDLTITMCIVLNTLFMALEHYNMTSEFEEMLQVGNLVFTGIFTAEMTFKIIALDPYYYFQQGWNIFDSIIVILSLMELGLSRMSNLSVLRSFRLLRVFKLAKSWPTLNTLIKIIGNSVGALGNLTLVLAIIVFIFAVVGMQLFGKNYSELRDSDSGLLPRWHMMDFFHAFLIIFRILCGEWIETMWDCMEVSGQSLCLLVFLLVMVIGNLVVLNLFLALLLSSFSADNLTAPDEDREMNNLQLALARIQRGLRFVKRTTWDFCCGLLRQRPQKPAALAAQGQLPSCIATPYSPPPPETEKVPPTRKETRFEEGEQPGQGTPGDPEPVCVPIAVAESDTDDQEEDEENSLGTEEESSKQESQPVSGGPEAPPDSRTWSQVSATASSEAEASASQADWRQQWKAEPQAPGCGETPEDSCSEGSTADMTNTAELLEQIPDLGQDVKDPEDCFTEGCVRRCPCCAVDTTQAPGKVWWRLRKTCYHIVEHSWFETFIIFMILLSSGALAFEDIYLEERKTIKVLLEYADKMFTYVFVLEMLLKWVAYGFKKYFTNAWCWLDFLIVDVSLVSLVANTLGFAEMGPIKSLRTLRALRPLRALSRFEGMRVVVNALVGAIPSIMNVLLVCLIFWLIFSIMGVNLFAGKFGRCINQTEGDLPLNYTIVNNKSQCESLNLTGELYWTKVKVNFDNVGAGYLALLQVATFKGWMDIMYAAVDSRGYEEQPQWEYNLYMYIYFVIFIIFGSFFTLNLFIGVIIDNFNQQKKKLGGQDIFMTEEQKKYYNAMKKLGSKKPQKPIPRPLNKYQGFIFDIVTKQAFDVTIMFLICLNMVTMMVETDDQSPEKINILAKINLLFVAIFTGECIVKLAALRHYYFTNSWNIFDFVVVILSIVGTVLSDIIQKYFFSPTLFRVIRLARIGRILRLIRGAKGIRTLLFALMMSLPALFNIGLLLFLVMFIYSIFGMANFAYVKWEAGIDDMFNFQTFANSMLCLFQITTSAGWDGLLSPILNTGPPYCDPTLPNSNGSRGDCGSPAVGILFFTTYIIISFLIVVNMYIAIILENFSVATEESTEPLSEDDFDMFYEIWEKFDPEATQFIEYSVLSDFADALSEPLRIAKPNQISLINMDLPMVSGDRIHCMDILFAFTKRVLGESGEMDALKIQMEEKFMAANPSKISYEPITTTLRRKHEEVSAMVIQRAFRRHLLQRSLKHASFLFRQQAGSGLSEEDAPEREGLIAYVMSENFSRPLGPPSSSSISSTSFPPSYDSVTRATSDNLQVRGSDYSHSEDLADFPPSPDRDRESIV
Data set [4] concerns the target T3, NaV1.1 (Homo sapiens (Human), UniProt P35498). Briefly: Sodium Influx Assay (Flux), NaV1.1.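 Note: channels co-expressed with human β1 subunit and held open by modulators, cells exposed to compounds for one hour at room temperature, IC50 from percent inhibition of influx.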 The following applies: Trex HEK293 cells, ANG2 dye, inactivated state. Type of data set: cell-based.
The target of data set [5] is T3, NaV1.1. Briefly: Electrophysiological Assay (EP), patch voltage clamp, NaV1.1.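 Note: sodium current block measured at ambient temperature, holding at fully inactivating potential, 20 ms repolarization to −150 mV before test pulse, versus 0.5% DMSO control currents.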 The data set is classed as cell-based. The settings on record: HEK-293 cells, whole-cell patch clamp.
Data set [6] has as its target T2, NaV1.5. Description: Sodium Influx Assay (Flux), NaV1.5.
Data set [7] addresses T2, NaV1.5.
Setting [8] is: read-out: Flux NaV1.5 IC50, Trex HEK293 cells, ANG2 dye, inactivated state.

Molecules are shown by their SMILES. Structures can show the parent of a compound that is named as a salt. Where two headings read alike, the source gives them in different places. Where only a bound is given, the exact number is not on record here.

What is called IC50 is the concentration needed to halve the response being measured. On to `C[C@H](Nc1cc(F)c(S(=O)(=O)Nc2cscn2)cc1Cl)c1cc(Cl)ccc1F` [Example 5, (S)-5-chloro-4-((1-(5-chloro-2-fluorophenyl)ethyl)amino)-2-fluoro-N-(thiazol-4-yl)benzenesulfonamide], for which the IC50 against NaV1.6 [1] worked out at 0.785 µM; on NaV1.6 [2], 0.152 µM; against NaV1.5 [3] it was 10 µM; against NaV1.1 [4], 4.83 µM; against NaV1.1 [5], 10 µM; at NaV1.5 [6] (setting [8]), 5.31 µM.

In the case of `C[C@H](Nc1cc(F)c(S(=O)(=O)Nc2nccs2)cc1Cl)c1ccccc1F` [Example 45, (S)-5-chloro-2-fluoro-4-((1-(2-fluorophenyl)ethyl)amino)-N-(thiazol-2-yl)benzenesulfonamide], the IC50 was determined as 0.108 µM on NaV1.6 [1]; 0.013 µM against NaV1.6 [2]; 5.15 µM against NaV1.5 [3]; 1.18 µM against NaV1.1 [4]; 0.539 µM against NaV1.1 [5]; 6.26 µM at NaV1.5 [6] (setting [8]).

As to `O=S(=O)(Nc1nccs1)c1cc(Cl)c(NCc2cccc3ccncc23)cc1F` [Example 61, 5-chloro-2-fluoro-4-((isoquinolin-8-ylmethyl)amino)-N-(thiazol-2-yl)benzenesulfonamide], the IC50 at NaV1.6 [1] worked out at 0.021 µM; against NaV1.6 [2] it was 0.004 µM; against NaV1.5 [3], 10 µM; against NaV1.1 [4], 1.13 µM; at NaV1.1 [5] it was 0.283 µM; on NaV1.5 [6] (setting [8]), 8.91 µM.

For `C[C@H](Oc1cc(F)c(S(=O)(=O)Nc2nccs2)cc1Cl)c1ccccc1F` [Example 116, (S)-5-chloro-2-fluoro-4-(1-(2-fluorophenyl)ethoxy)-N-(thiazol-2-yl)benzenesulfonamide], the IC50 on NaV1.6 [1] was determined as 0.477 µM; against NaV1.6 [2] it was 0.037 µM; at NaV1.5 [3], 14.3 µM; at NaV1.1 [4] it was 5.78 µM; at NaV1.1 [5], 9.89 µM; on NaV1.5 [6] (setting [8]) it was 4.58 µM.

Turning to `CCC(Nc1ccc(S(=O)(=O)Nc2ncns2)cc1Cl)c1ccccc1` (stereo not shown) [Example 139, 3-chloro-4-(1-phenylpropylamino)-N-(1,2,4-thiadiazol-5-yl)benzenesulfonamide], the half-maximal inhibitory concentration (IC50) against NaV1.6 [1] is 0.107 µM; against NaV1.6 [2], 0.038 µM; on NaV1.5 [3], not below 30 µM; against NaV1.1 [4], 1.29 µM; against NaV1.5 [6] it was 12.9 µM.

As to `C[C@H]1CCCN1Cc1cccc(F)c1CNc1cc(F)c(S(=O)(=O)Nc2cscn2)c(F)c1` [Example 158, (S)-2,6-difluoro-4-((2-fluoro-6-((2-methylpyrrolidin-1-yl)methyl)benzyl)amino)-N-(thiazol-4-yl)benzenesulfonamide formate], the IC50 was 0.126 µM against NaV1.6 [1], 30 µM at NaV1.1 [4] and 30 µM on NaV1.5 [7].

Turning to `CN(Cc1cccc(F)c1CNc1cc(F)c(S(=O)(=O)Nc2cscn2)c(F)c1)CC1CC1` [Example 187, 4-((2-(((cyclopropylmethyl)(methyl)amino)methyl)-6-fluorobenzyl)amino)-2,6-difluoro-N-(thiazol-4-yl)benzenesulfonamide formate], the figures for the IC50 against NaV1.6 [1], on NaV1.1 [4] and on NaV1.5 [7] were 0.065 µM, 12.4 µM and 30 µM, respectively.

For `C[C@H](Nc1ccc(S(=O)(=O)Nc2cscn2)c(F)c1Cl)c1cc(Cl)ccc1F` [Example 190, (S)-3-chloro-4-((1-(5-chloro-2-fluorophenyl)ethyl)amino)-2-fluoro-N-(thiazol-4-yl)benzenesulfonamide], the 50% inhibitory concentration (IC50) on NaV1.6 [1] was determined as 0.571 µM; at NaV1.6 [2], 0.055 µM; against NaV1.5 [3] it was 30 µM; against NaV1.1 [4], 13.4 µM; against NaV1.1 [5] it was 9.71 µM; on NaV1.5 [6] (setting [8]), 25.8 µM.

Turning to `CC1(C)CCN1Cc1c(F)cccc1CNc1cc(F)c(S(=O)(=O)Nc2cscn2)c(F)c1` [Example 198, 4-((2-((2,2-dimethylazetidin-1-yl)methyl)-3-fluorobenzyl)amino)-2,6-difluoro-N-(thiazol-4-yl)benzenesulfonamide formate], the half-inhibitory concentration (IC50) on NaV1.6 [1] was determined as 0.391 µM; on NaV1.1 [4], 25.8 µM; at NaV1.5 [7], 30 µM.

`C[C@H](Nc1cc(F)c(S(=O)(=O)Nc2cscn2)cc1Cl)c1cc(CCN2CCC2)ccc1F` [Example 257, (S)-4-((1-(5-(2-(azetidin-1-yl)ethyl)-2-fluorophenyl)ethyl)amino)-5-chloro-2-fluoro-N-(thiazol-4-yl)benzenesulfonamide formate]: the results for the IC50 at NaV1.6 [1], against NaV1.1 [4] and against NaV1.5 [7] were 0.49 µM, 6.1 µM and 8.39 µM, respectively.

Regarding `O=S(=O)(Nc1cscn1)c1c(F)cc(NCc2ccccc2CN2CCC2)cc1F` [Example 272, 4-((2-(azetidin-1-ylmethyl)benzyl)amino)-2,6-difluoro-N-(thiazol-4-yl)benzenesulfonamide formate], the half-inhibitory concentration (IC50) on NaV1.6 [1] came out at 0.163 µM; at NaV1.6 [2] it was 0.031 µM; against NaV1.5 [3] it was 30 µM; against NaV1.1 [4], 20.7 µM; against NaV1.1 [5], 10 µM; on NaV1.5 [6] (setting [8]) it was 30 µM.

For the molecule `CC[C@H](Nc1cc(F)c(S(=O)(=O)Nc2ccncn2)cc1Cl)c1ccccc1Cl` [Example 277, (S)-5-chloro-4-((1-(2-chlorophenyl)propyl)amino)-2-fluoro-N-(pyrimidin-4-yl)benzenesulfonamide 2,2,2-trifluoroacetate], the IC50 on NaV1.6 [1] came to 0.38 µM; against NaV1.6 [2], 0.043 µM; at NaV1.5 [3], 10 µM; against NaV1.1 [4], 3.77 µM; against NaV1.1 [5] it was 5.59 µM; on NaV1.5 [6] (setting [8]), 9.39 µM.

As for `O=S(=O)(Nc1cscn1)c1c(F)cc(NCc2c(F)ccc(F)c2CN2CCC2)cc1F` [Example 283, 4-((2-(azetidin-1-ylmethyl)-3,6-difluorobenzyl)amino)-2,6-difluoro-N-(thiazol-4-yl)benzenesulfonamide], the IC50 on NaV1.6 [1] is 0.126 µM; at NaV1.6 [2] it was 0.011 µM; at NaV1.5 [3] it was 30 µM; against NaV1.1 [4], 14.9 µM; on NaV1.1 [5], 14.5 µM; on NaV1.5 [6] (setting [8]) it was 28 µM.

For the molecule `CC[C@H](Nc1cc(F)c(S(=O)(=O)Nc2cccc(F)n2)cc1Cl)c1ccccc1F` [Example 316, (S)-5-chloro-2-fluoro-4-((1-(2-fluorophenyl)propyl)amino)-N-(6-fluoropyridin-2-yl)benzenesulfonamide], the half-maximal inhibitory concentration (IC50) on NaV1.6 [1] stood at 0.961 µM; on NaV1.6 [2], 0.264 µM; on NaV1.1 [4], 2.5 µM; against NaV1.1 [5], 5.65 µM; at NaV1.5 [6] (setting [8]), 5.86 µM.

In the case of `CN1CC(Oc2cccc(F)c2CNc2cc(F)c(S(=O)(=O)Nc3cscn3)c(F)c2)C1` [Example 326, 2,6-difluoro-4-((2-fluoro-6-((1-methylazetidin-3-yl)oxy)benzyl)amino)-N-(thiazol-4-yl)benzenesulfonamide formate], the 50% inhibitory concentration (IC50) on NaV1.6 [1] was found to be 0.125 µM; against NaV1.6 [2], 0.09 µM; against NaV1.1 [4] it was 7.86 µM; on NaV1.1 [5], 10 µM; at NaV1.5 [6] (setting [8]), 12.7 µM.

For `O=S(=O)(Nc1cccnn1)c1c(F)cc(NCc2c(F)cccc2CN2CCC2)cc1F` [Example 333, 4-((2-(azetidin-1-ylmethyl)-6-fluorobenzyl)amino)-2,6-difluoro-N-(pyridazin-3-yl)benzenesulfonamide formate], the IC50 on NaV1.6 [1] was found to be 0.257 µM; against NaV1.6 [2], 0.186 µM; on NaV1.1 [4], 30 µM; on NaV1.1 [5], 10 µM; on NaV1.5 [6] (setting [8]), 30 µM.

For the molecule `O=S(=O)(Nc1cscn1)c1cc(Cl)c(N[C@H](c2cc(F)ccc2F)C(F)F)cc1F` [Example 335, (R)-5-chloro-4-((1-(2,5-difluorophenyl)-2,2-difluoroethyl)amino)-2-fluoro-N-(thiazol-4-yl)benzenesulfonamide], the half-maximal inhibitory concentration (IC50) against NaV1.6 [1] worked out at 0.385 µM; against NaV1.6 [2] it was 0.085 µM; against NaV1.1 [4], 4.79 µM; on NaV1.1 [5], 10 µM; at NaV1.5 [6] (setting [8]), 21.2 µM.
